Laboratory results taken from PMC9414874, “New Benzimidazoles Targeting Breast Cancer: Synthesis, Pin1 Inhibition, 2D NMR Binding, and Computational Studies” (Molecules, 2022).
Where “and” joins values, the source holds several entries; their conditions need not be identical. Equal entries are not always repeated. Where two headings read alike, the source gives them in different places.

Key:
caspase-7 = assay: Caspase-7 level by ELISA in MCF-7 cells; type: cell-based, human
Experimental: (§1) Apoptosis can be excited by different stimuli via intrinsic and extrinsic pathways. It was reported that pin 1 inhibition involving apoptosis was performed via intrinsic mitochondrial l) pathways. […] The Bax/Bcl-2 ratio plays an important role in controlling the release of mitochondrial cytochrome c, after its release to the cytosol, caspase 9 is activated which can mediate downstream caspase activation including: caspase-3, caspase-6, and caspase-7 that obligated cells to apoptosis. Based on the above, we examined compound 8 capability to trigger intrinsic apoptotic pathways by affecting the expression of these markers in MCF-7 cells. […] In addition, it elevated the level of cytochrome C by about 2.49-fold compared to the control. […]
(§2) The level of BAX, Bcl-2, cytochrome C, and caspases 6, 7, and 9 were estimated using ELISA colorimetric kits; for BAX (DRG® Human Bax ELISA, EIA-4487), Bcl-2 (Zymed® Bcl-2 ELISA Kit), cytochrome c (Abcam cytochrome c Human ELISA kit, ab119521), caspase-6 (Human CASP6, ELISA Kit, MBS2533323), caspase-7 (Caspase-7 (Human) ELISA Kit, E4295-100), caspase-9 (DRG® Caspase-9 (human) ELISA, EIA-4860). […] This lysate was diluted in Standard Diluent Buffer all over the assay, then by using a microplate reader set at 450 nm, the optical density of each well was determined within 30 min to determine the human active BAX, Bcl-2, cytochrome C, caspases 6, 7 and 9 content.

WI38 = assay: In vitro cytotoxicity against normal Human lung fibroblast (WI38) cell line; type: cell-based
[1] = as above; type: cell-based; details: human, WI38 normal lung fibroblast cells
cytochrome C = assay: Cytochrome c level by ELISA in MCF-7 cells; type: cell-based, human
Experimental: as §1, §2

BAX = BAX level by ELISA in MCF-7 cells; type: cell-based, human
Experimental: as §1, §2

caspase-6 = assay: Caspase-6 level by ELISA in MCF-7 cells; type: cell-based, human; details: mean ± SD of three experiments
Experimental: as §1, §2

MCF-7 = assay: MTT cytotoxicity assay against breast cancer cell line MCF-7; details: for IC50: Homo sapiens
Experimental: All our newly synthesized hybrids were evaluated for their in vitro anticancer activity by the standard MTT assay against a breast cancer cell line (MCF-7). MTT is a calorimetric assay which relies on the ability of live tumor cells to reduce yellow MTT (3-(4,5-dimethylthiazol-2-yl)-2,5-diphenyltetrazolium bromide) to purple formazan by mitochondrial dehydrogenases, then added DMSO to dissolve the purple formazan and quantified by measuring absorbance at a certain wavelength. The dose response curve for compounds-treated vs. untreated cells is used to quantify the amount of formazan produced to report on the effectiveness of the compounds. […] Cell line: Mammary gland breast cancer (MCF-7). The cell line was obtained from ATCC via Holding company for biological products and vaccines (VACSERA), Cairo, Egypt. […] The cell line elucidated above were used to determine the inhibitory effects of compounds on cell growth using the MTT assay. […] After incubation, the cells were treated with different concentrations of compounds and incubated for an additional 24 h. After 24 h of drug treatment, 20 µL of MTT solution at 5 mg/mL was added and incubated for 4 h. […] The relative cell viability in percentage was calculated as (A570 of treated samples/A570 of the untreated sample) × 100 [48].

Bcl-2 = Bcl-2 level by ELISA in MCF-7 cells; type: cell-based, human
Experimental: as §1, §2

ROS in MCF-7 cells = assay: Intracellular ROS accumulation assay (Human ROS ELISA Kit); type: cell-based
Excerpt: Reactive oxygen species (ROS) are chemically reactive species containing oxygen atoms including peroxides, superoxide, and hydroxyl radicals. They play an important role in the activation of apoptosis under physiological or pathological conditions. Direct or indirect ROS action can mediate the release of mitochondrial cytochrome c which trigger the induction of caspase. The intracellular level of ROS was estimated by The Human ROS ELISA Kit, which is based on standard sandwich enzyme-linked immunosorbent assay technology.
The Human ROS ELISA Kit is based on standard sandwich enzyme-linked immunosorbent assay technology. In which, the anti-Human ROS specific antibody has been pre-coated onto a 96-well plate and the human ROS present in the standards/samples bind to the capture antibody. Then biotinylated anti-Human ROS detection antibody is added to form an Ab-Ag-Ab sandwich. After a washing step, streptavidin-HRP is added and the unbound conjugate is removed with wash buffer. Subsequently, the addition of HRP substrate, TMB, results in the production of a blue-colored product that changes to yellow after the addition of acidic Stop Solution, and the density of yellow color is directly proportional to the amount of Human ROS captured on the plate. […] After that adding 90 μL TMB substrate, incubating 15–30 min at 37 °C, adding 50 μL Stop Solution and reading at 450 nm immediately. […]

caspase-9 = assay: Caspase-9 level by ELISA in MCF-7 cells; type: cell-based, human
Experimental: as §1, §2

Pin1 = Pin1 (Homo sapiens, UniProt Q13526); assay: Pin1 inhibition assay (SensoLyte Green Pin1 Assay Kit); type: biochemical; parameters: purchased; details: means ± SD of three experiments
Sequence of Pin1 (Q13526 whole entry): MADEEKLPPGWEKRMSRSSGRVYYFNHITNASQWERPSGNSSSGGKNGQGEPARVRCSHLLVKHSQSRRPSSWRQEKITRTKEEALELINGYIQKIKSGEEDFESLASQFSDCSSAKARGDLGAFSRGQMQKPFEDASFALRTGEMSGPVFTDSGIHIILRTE
Experimental: The ability of the synthesized compounds to inhibit the Pin1 activity was evaluated using the SensoLyte® Green Pin1 Assay Kit. This assay is based on using a fluorogenic substrate which was pretreated to convert it into the cis isomer. Pin1 can change this substrate into the trans isomer that is easily cleaved to generate a fluorescent signal.

MCF-7 cells [2] = assay: Annexin V-FITC/PI dual staining apoptosis assay; type: cell-based, human; details: MCF-7, 2 µM, 24 h
Experimental: This assay was performed using a breast MCF-7 cell line to determine the percentage of apoptosis induced by compound 8, in which MCF-cells were incubated with compound 8 at 2 µM concentration for 24 h.
Apoptosis detection was performed by using Annexin V-FITC and PI apoptosis kit (eBioscience^TM, San Diego, CA, USA). Mcf cells were plated at a 600,000 cells/mL density onto a six well plate. After 24 h of incubation, the cells were treated with compound 8 at […]. Cells grown in media containing an equivalent amount of DMSO served as solvent control. After 24 h, the cells were stained with an Annexin V-FITC conjugate and propidium iodide (PI), and the percentage of apoptotic, necrotic, and living cells was determined according to the protocol provided by the Annexin V-FITC and PI apoptosis kit. The cells’ emitted fluorescence was analyzed by flow cytometry (NovoCyte, ACEA Biosciences Inc., San Diego, CA, USA) through the NovoExpress 1.3.0 software (ACEA Biosciences Inc., San Diego, CA, USA), acquiring 1 × 104 events per sample using the population plot “dot plot”, where each point corresponds to a single event with a specific fluorescence signal about the axes; Annexin V-FITC green fluorescence in abscissa vs. PE red fluorescence inordinate.

MCF-7 cells [3] = assay: Cell cycle distribution / DNA content by flow cytometry; type: cell-based, human; details: MCF-7, 2 µM, 24 h

melting point: 155 to 158 °C | IC50 (Pin1): 0.76 ± 0.04 nM
SMILES: CN(C)c1ccc(C2CC(c3nc4cc(Cl)c(Cl)cc4[nH]3)=NO2)cc1 (stereo not shown) [Compound 8, 4-(3-(5,6-Dichloro-1H-benzo[d]imidazol-2-yl)-4,5-dihydroisoxazol-5-yl)-N,N-dimethylaniline]
Enhancement of caspase 7 level compared to the control (caspase-7): ~9.06 fold | Casp.7 level (caspase-7; mean ± SD of three experiments): 4.17 ± 0.11 ng/mL | IC50 (WI38): 71.6 ± 4 µM | IC50 at 24 h [1]: 71.6 µM | Elevation of cytochrome C level compared to the control (cytochrome C): about 2.49 fold | Cytoc level (cytochrome C; mean ± SD of three experiments): 0.62 ± 0.02 ng/mL | Increase of Bax level compared to the control (BAX): 4.63 fold | BAX level (BAX; mean ± SD of three experiments): 268.71 ± 9.20 pg/mL | Casp.6 level (caspase-6): 0.48 ± 0.02 ng/mL | IC50 (MCF-7; MCF7, 24 h, read-out: In Vitro Cytotoxicity IC50 MCF-7, MTT assay, 24 h treatment): 8.7 ± 0.6 µM | IC50 (MCF-7; MCF7, read-out: IC50 against breast cancer cell line (MCF-7), MTT assay, section 2.2): 8.76 µM | Cytotoxic activity class against MCF-7 (MCF-7; class by IC50): very strong (1–10 (very strong)) | Decrease of Bcl-2 level compared to the control (Bcl-2): 39% | BCL-2 level (Bcl-2; mean ± SD of three experiments): 2.81 ± 0.07 ng/mL | ROS accumulation higher than the control cells (ROS in MCF-7 cells): 1.258 fold | Enhancement of caspase 9 level compared to the control (caspase-9): ~8.97 fold | Casp.9 level (caspase-9; mean ± SD of three experiments): 20.86 ± 0.73 ng/mL | Apoptosis Early (MCF-7 cells [2]): 3.7% and 3.71% | Apoptosis Late (MCF-7 cells [2]): 15.32% | Apoptosis Total (MCF-7 cells [2]): 38.25% | Increase of apoptosis (15.32%) over untreated cells (MCF-7 cells [2]): 128 fold | Necrosis (MCF-7 cells [2]): 19.22% | DNA Content %G0-G1 (MCF-7 cells [3]): 44.29% | DNA Content %G2-M (MCF-7 cells [3]): 6.45% | DNA Content %Pre G1 (MCF-7 cells [3]): 38.25% | DNA Content %S (MCF-7 cells [3]): 49.26%
